What was measured:
U87-MG [1] = assay: Overall effect (surviving cells x colonies formed vs. control), U87-MG; format: cell-based, human; details: for overall effect, Observed TTFields + AZD1152 / overall effect, AZD1152: 72 h; for overall effect, Expected: expected value for the combination; for overall effect, AZD1152: surviving cells x colonies vs. control
Description: The effects of the combined treatment of TTFields and the Aurora B kinase inhibitor AZD1152 was tested in 3 different glioma cell lines: U87-MG, U87-MG^shp53 and U-251. TTFields ([…], 200 kHz) were applied for 72 hours using the Inovitro system. AZD1152 was added to the media in concentrations of up to 100 nmol/L. Cell counts, cell cycle, and clonogenic potential were determined at the end of treatment. Formation of multinuclear cells was determined using microscopic images of cells stained with crystal violet.
The effects of the combined treatment of TTFields and AZD1152 was tested using the following human glioma cell lines: U87-MG (ATCC), U-251 (ECACC) and U87-mG^shp53 (provided by Dr. Achim Temme). All cells were grown in a humidified incubator supplied with 5% CO2. Cells were maintained in EMEM, supplemented with 10% FBS, 2 mmol/L glutamine, Pen-Strep solution (100 units/ml Penicillin and 0.1 mg/ml Streptomycin), 1 mmol/L sodium pyruvate and 1% NEAA. U87-MG^shp53 cells were maintained under selection with […] geneticin. AZD1152 was obtained from Sigma, Israel.
TTFields (1.6 V/cm RMS, 200 kHz) were applied for 72 hours using the Inovitro system. At the end of treatment, inhibition of tumor cell growth was analyzed quantitatively based on cell count. Clonogenic survival of U87-MG, U87-MG^shp53 and U-251 was tested by plating triplicates of 300 cells/dish in 6 wells dishes. After 2-3 weeks, cells were stained with crystal violet and the number of clones was quantified. Overall effect was calculated by multiplying the percentage of surviving cells at the end of treatment with the percentage of colonies formed vs. control.

U87-MG [2] = assay: Flow cytometry analysis of DNA contents (ploidy), U87-MG; format: cell-based, human; details: 72 h
Description: For cell cycle analysis, cells were removed with Trypsin immediately after 72 h treatment, washed twice with ice-cold PBS with 1% FBS and fixed with 70% ice-cold ethanol for 30 min. After fixation, cells were washed twice with ice-cold PBS with 1% FBS, pelleted and incubated in PBS containing 10 μg/ml RNase and 7.5 μg/ml7-AAD (Sigma-Aldrich) at 37° C. for 30 min. Cell cycle distribution was then quantified using the EC800 flow cytometer (Sony Biotechnology, Japan).
FIGS. 3A-D and 4A-E show U87-MG and U87-MG^shp53 FACS analysis of DNA contents following treatment with TTFields and AZD1152. More specifically, FIGS. 3A-D depict increased polyploidy in U87-MG cells following the combined treatment of TTFields (200 kHz, 1.6 V/cm RMS) at various AZD1152 concentrations; and FIGS. 4A-E depict increased polyploidy in U87-MG^shp53 cells following the combined treatment of TTFields (200 kHz, 1.6 V/cm RMS) at various AZD1152 concentrations.
Tables 1 and 2 depict, for U87-MG and U87-MG^shp53 respectively, numeric data corresponding to FIGS. 3 and 4. The columns in tables 1 and 2 represent the DNA copy number (e.g., 2n is the normal number of chromosomes (23 pairs=46), 4n is twice the number of chromosomes, etc.).

[3] = AZD1152 25 nM + TTFIELDS 200 kHz 1.6 V/cm RMS
[4] = AZD1152 50 nM + TTFIELDS 200 kHz 1.6 V/cm RMS
[5] = AZD1152 100 nM + TTFIELDS 200 kHz 1.6 V/cm RMS
[6] = AZD1152 25 nM, CONTROL (no TTFields)
[7] = AZD1152 50 nM, CONTROL (no TTFields)
[8] = AZD1152 100 nM, CONTROL (no TTFields)

## CCN(CCCOc1ccc2c(Nc3cc(CC(=O)Nc4cccc(F)c4)n[nH]3)ncnc2c1)CCOP(=O)(O)O [AZD1152, Barasertib]
U87-MG [1]; [3]
  overall effect, Observed TTFields + AZD1152: 10.0%
U87-MG [1]; AZD1152 25 nM + TTFields
  overall effect, Expected: 15.0%
U87-MG [1]; AZD1152 25 nM alone
  overall effect, AZD1152: 31%
U87-MG [1]; [4]
  overall effect, Observed TTFields + AZD1152: 6.0%
U87-MG [1]; AZD1152 50 nM + TTFields
  overall effect, Expected: 8.0%
U87-MG [1]; AZD1152 50 nM alone
  overall effect, AZD1152: 16.5%
U87-MG [1]; [5]
  overall effect, Observed TTFields + AZD1152: 4.0%
U87-MG [1]; AZD1152 100 nM + TTFields
  overall effect, Expected: 2.2%
U87-MG [1]; AZD1152 100 nM alone
  overall effect, AZD1152: 4.5%
U87-MG [2]; [3]
  DNA copy number 2n: 39%
  DNA copy number 4n: 31%
  DNA copy number 8n: 9%
  DNA copy number 16n: 2%
U87-MG [2]; [6]
  DNA copy number 2n: 55%
  DNA copy number 4n: 25%
  DNA copy number 8n: 4%
  DNA copy number 16n: 1%
U87-MG [2]; [4]
  DNA copy number 2n: 28%
  DNA copy number 4n: 36%
  DNA copy number 8n: 16%
  DNA copy number 16n: 2%
U87-MG [2]; [7]
  DNA copy number 2n: 45%
  DNA copy number 4n: 26%
  DNA copy number 8n: 8%
  DNA copy number 16n: 2%
U87-MG [2]; [5]
  DNA copy number 2n: 11%
  DNA copy number 4n: 40%
  DNA copy number 8n: 25%
  DNA copy number 16n: 4%
U87-MG [2]; [8]
  DNA copy number 2n: 27%
  DNA copy number 4n: 33%
  DNA copy number 8n: 22%
  DNA copy number 16n: 3%
